The values below are quoted from earlier work in patent US6444469B1, “Methods for altering the rate of plant development and plants obtained therefrom” (Yale University, priority 1996, dated 2002).

This data set deals with late-flowering strains and mutants of Arabidopsis. The conditions noted are these: treatment of seeds; some late-flowering strains and mutants.

For the compound `Nc1ncn([C@@H]2O[C@H](CO)[C@@H](O)[C@H]2O)c(=O)n1` [Line 5-AzaC, 5-azacytidine], the Effect on flowering entry is “early flowering”.
